Values quoted from earlier work as cited in patent publication US6696082B2, “Enhanced liposomal thioretinaco ozonide compositions and liposomal carrier” (priority 2002, dated 2004).

Assays:
malignant tumors = conditions: in vivo; cited from earlier work
[1] = rats treated with parenteral homocysteine thiolactone; cited from earlier work
[2] = test system: cultured malignant and normal cells; conditions: except at high concentrations; cited from earlier work
[3] = test system: human pancreatic adenocarcinomas; conditions: intra-tumor administration, athymic mice; cited from earlier work

| Compound | growth of malignant tumors in animals (malignant tumors) | antiatherogenic activity [1] | growth of cultured cells [2] | growth of human pancreatic adenocarcinomas [3] |
| --- | --- | --- | --- | --- |
| NC(=O)/C=C\C(=O)NC1CCSC1=O (centres unmarked) [N-maleamide homocysteine thiolactone amide] | suppress the growth of malignant tumors in animals | – | – | – |
| CC1=C(/C=C/C(C)=C/C=C/C(C)=C/C(=O)NC2CCSC2=O)C(C)(C)CCC1 (centres unmarked) [thioretinamide, N-homocysteine thiolactonyl retinamide] | – | have antiatherogenic activity | decrease growth without degeneration or detachment of the cells | – |
| N-homocysteine thiolactonyl retinamido cobalamin [(NHTR)2Cbl] | – | have antiatherogenic activity | decrease growth without degeneration or detachment of the cells | decreased the growth |
| N-maleyl homocysteine thiolactone amide | suppress the growth of malignant tumors in animals | – | – | – |
| rhodium trichloride oxalyl homocysteine thiolactone amide | suppress the growth of malignant tumors in animals | – | – | – |
